# Source: article PMC2976784 (Proteins, 2010)
# Biological target: T1, YndB (Bacillus subtilis, UniProt O31806)
# T1 sequence (O31806 1-144): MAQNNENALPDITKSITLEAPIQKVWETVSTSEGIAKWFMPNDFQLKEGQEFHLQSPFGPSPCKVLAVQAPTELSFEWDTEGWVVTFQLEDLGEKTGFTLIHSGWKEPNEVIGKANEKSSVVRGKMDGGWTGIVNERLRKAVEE
# Test: 2D 1H-15N HSQC NMR titration, chemical shift perturbation fit
# Assay type: binding
row,SMILES,Kd [µM]
1,O=C1CC(c2ccccc2)Oc2ccccc21 (stereo not shown) [flavanone],32 ± 3
2,O=c1cc(-c2ccccc2)oc2ccccc12 [flavone],62 ± 9
3,O=c1c(O)c(-c2ccccc2)oc2ccccc12 [flavonol],86 ± 16
4,O=C(/C=C/c1ccccc1)c1ccccc1 [trans-chalcone],< 1
